One compound from ChEMBL document CHEMBL5143732 (J Med Chem, 2022) can be followed below.

One data set deals with T1, Cytochrome P450 1A2 (Homo sapiens, UniProt P05177).
T1 sequence (P05177 whole entry): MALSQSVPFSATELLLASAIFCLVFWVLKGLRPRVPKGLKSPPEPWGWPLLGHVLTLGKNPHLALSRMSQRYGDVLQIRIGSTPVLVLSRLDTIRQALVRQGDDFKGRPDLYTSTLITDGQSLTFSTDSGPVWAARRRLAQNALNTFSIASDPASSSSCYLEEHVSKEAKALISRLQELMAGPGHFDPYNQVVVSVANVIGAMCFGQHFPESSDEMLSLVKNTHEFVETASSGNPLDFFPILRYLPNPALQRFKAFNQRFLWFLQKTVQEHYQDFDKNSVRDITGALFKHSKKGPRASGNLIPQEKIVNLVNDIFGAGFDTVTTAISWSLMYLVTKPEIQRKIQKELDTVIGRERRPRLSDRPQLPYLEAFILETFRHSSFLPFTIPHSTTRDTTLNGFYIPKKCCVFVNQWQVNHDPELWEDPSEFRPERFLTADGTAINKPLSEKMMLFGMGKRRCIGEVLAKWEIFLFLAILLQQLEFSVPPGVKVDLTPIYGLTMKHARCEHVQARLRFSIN
Kind of data set: Inhibition of CYP1A2 in human liver microsome using Phenacetin as substrate preincubated for 10 mins followed by NADPH addition and measured after 15 mins by LC-MS/MS analysis. The data set is classed as ADME, microsomes. (In general: Liver microsomes are vesicles of endoplasmic reticulum, rich in cytochrome P450 enzymes.)

Data set [1] concerns the target Voltage-gated inwardly rectifying potassium channel KCNH2 (Homo sapiens, UniProt Q12809). Kind of data set: Inhibition of hERG expressed in CHO cells at -80 mV holding potential by automated patch clamp method. Format: toxicity, cell-based. (The hERG channel carries a current that helps repolarise heart muscle cells.)
A short description of data set [2]: Aggregation property of the compound in PBS at 7.4 pH assessed as dimerization at 5.4 uM by UV/vis double-beam spectrometer analysis. Format: physicochemical. As to conditions: buffer, pH 7.4, 5.4 µM; call rule not given here.
Data set [3] can be described thus: Aqueous solubility of compound at pH 6.8. Format: physicochemical. As to conditions: buffer.
A further data set has as its target Cytochrome P450 2C19 (Homo sapiens, UniProt P33261). Briefly: Inhibition of CYP2C19 in human liver microsome using mephenytoin as substrate preincubated for 10 mins followed by NADPH addition and measured after 15 mins by LC-MS/MS analysis. The data set is classed as ADME, microsomes.
A further data set concerns the target Cytochrome P450 2C9 (Homo sapiens, UniProt P11712). Kind of data set: Inhibition of CYP2C9 in human liver microsome using tolbutamide as substrate preincubated for 10 mins followed by NADPH addition and measured after 15 mins by LC-MS/MS analysis. Format: ADME, microsomes.
The next data set concerns the target Cytochrome P450 3A4 (Homo sapiens, UniProt P08684). Briefly: Inhibition of CYP3A4 in human liver microsome using midazolam and testostrone as substrate preincubated for 10 mins followed by NADPH addition and measured after 15 mins by LC-MS/MS analysis. Format: ADME, microsomes.
The target of another data set is Cytochrome P450 2D6 (Homo sapiens, UniProt P10635). Briefly: Inhibition of CYP2D6 in human liver microsome using dextromethorphan as substrate preincubated for 10 mins followed by NADPH addition and measured after 15 mins by LC-MS/MS analysis. The data set is classed as ADME, microsomes.
Sequence of Cytochrome P450 2D6 (P10635 whole entry): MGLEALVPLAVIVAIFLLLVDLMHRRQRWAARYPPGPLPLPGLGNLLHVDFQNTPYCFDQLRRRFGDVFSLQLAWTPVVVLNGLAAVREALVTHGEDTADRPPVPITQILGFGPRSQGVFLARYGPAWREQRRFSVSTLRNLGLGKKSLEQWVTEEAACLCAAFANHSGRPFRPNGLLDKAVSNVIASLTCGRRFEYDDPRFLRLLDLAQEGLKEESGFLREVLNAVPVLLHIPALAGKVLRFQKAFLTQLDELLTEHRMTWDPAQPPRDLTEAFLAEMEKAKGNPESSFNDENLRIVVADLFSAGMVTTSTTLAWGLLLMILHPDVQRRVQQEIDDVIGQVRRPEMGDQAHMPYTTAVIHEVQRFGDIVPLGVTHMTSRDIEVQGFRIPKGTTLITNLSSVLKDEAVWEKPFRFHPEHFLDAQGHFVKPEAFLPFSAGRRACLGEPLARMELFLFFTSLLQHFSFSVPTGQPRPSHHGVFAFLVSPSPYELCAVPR

Sequence of Cytochrome P450 2C9 (P11712 whole entry): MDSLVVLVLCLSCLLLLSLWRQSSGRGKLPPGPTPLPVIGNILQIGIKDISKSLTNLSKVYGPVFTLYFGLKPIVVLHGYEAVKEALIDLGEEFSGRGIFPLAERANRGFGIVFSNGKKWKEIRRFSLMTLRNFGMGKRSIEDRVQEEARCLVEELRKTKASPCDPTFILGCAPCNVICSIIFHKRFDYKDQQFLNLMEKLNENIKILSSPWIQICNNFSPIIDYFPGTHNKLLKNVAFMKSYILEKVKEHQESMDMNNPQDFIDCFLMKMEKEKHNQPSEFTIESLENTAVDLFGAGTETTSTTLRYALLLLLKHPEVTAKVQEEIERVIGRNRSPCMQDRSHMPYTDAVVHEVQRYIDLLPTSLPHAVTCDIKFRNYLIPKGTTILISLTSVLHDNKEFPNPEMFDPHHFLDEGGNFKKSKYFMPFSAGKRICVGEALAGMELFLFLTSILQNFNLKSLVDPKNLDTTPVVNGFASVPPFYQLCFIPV
Sequence of Voltage-gated inwardly rectifying potassium channel KCNH2 (Q12809 whole entry): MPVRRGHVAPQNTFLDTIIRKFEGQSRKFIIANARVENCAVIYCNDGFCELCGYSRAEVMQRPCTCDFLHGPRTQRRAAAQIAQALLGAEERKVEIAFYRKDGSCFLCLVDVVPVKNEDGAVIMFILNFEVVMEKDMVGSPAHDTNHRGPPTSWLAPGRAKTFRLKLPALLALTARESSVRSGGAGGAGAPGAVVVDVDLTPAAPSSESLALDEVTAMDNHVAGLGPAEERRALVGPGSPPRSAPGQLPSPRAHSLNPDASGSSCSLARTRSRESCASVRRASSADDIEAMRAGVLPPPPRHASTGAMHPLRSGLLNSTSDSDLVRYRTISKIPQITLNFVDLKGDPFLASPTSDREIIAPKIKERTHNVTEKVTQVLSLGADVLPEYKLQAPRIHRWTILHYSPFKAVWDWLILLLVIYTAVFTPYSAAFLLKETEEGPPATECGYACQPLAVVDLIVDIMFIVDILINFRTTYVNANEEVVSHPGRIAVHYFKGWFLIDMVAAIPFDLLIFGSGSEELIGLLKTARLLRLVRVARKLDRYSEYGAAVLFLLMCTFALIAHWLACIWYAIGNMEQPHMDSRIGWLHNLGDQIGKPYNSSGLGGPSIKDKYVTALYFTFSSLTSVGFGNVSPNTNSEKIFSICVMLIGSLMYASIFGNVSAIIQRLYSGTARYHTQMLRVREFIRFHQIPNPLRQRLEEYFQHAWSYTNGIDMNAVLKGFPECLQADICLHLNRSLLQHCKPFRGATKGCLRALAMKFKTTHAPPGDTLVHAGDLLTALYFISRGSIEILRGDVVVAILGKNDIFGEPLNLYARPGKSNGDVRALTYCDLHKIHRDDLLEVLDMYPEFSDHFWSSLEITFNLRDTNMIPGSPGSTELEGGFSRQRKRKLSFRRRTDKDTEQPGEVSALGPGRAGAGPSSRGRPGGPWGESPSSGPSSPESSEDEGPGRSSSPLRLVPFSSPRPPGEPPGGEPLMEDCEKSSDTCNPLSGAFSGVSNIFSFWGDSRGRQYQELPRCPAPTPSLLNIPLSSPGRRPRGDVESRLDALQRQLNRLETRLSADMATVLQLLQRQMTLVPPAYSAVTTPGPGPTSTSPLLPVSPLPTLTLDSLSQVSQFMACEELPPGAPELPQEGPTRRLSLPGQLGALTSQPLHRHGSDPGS
Sequence of Cytochrome P450 2C19 (P33261 whole entry): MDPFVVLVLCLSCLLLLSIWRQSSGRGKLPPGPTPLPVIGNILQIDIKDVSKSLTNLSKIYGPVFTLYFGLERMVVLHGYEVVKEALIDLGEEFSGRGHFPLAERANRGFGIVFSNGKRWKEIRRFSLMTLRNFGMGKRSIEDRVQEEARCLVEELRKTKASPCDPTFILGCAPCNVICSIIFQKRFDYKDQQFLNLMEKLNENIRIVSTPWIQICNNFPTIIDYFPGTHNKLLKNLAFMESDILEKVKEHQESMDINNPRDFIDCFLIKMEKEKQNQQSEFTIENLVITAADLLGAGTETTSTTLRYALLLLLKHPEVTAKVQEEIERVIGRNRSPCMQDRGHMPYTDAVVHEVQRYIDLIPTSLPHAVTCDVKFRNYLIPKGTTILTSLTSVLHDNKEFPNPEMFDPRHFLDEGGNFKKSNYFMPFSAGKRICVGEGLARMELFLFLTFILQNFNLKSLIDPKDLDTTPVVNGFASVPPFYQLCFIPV
Sequence of Cytochrome P450 3A4 (P08684 whole entry): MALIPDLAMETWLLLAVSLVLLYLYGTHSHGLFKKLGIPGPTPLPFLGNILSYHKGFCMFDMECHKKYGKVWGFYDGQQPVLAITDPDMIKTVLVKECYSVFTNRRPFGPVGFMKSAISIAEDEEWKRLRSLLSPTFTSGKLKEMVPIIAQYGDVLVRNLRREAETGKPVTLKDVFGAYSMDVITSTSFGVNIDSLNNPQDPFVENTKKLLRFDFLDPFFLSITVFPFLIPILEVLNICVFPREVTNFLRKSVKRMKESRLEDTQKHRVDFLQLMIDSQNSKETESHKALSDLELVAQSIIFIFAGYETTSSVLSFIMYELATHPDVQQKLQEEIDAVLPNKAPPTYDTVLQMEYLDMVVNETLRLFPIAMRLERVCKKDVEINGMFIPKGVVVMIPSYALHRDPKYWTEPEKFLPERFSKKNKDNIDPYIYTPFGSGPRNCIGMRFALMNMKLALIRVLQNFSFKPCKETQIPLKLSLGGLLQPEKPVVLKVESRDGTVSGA

For orientation: IC50 means the concentration that inhibits the measured activity by half. Higher therefore signals lower potency. What is called solubility is the dissolved amount per volume that the medium holds. Take `CNCC(=O)N[C@@H]1[C@H](O)[C@H](O[C@H]2/C=C/C=C/C=C/C=C/C=C/C=C/C=C/[C@H](C)[C@@H](O)[C@@H](C)[C@H](C)OC(=O)C[C@H](O)C[C@H](O)CC[C@@H](O)[C@H](O)C[C@H](O)C[C@]3(O)C[C@H](O)[C@@H](C(=O)NCCN)[C@H](C2)O3)O[C@H](C)[C@H]1O.NC(CCC(=O)O)C(=O)O`: the half-maximal inhibitory concentration (IC50) against Cytochrome P450 1A2 is greater than 25 µM; in data set [1], greater than 13.3 µM; against Cytochrome P450 2C19, greater than 50 µM; at Cytochrome P450 2C9, greater than 50 µM; against Cytochrome P450 3A4 it was 36.9 µM; against Cytochrome P450 2D6, greater than 50 µM. In data set [2], the outcome was Active. In data set [3], this compound came in with a solubility of 106 mg/mL.
